Test [1] concerns the target T1, Receptor-type tyrosine-protein phosphatase C (Homo sapiens, UniProt P08575).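 Further: inhibition of CD45 enzyme activity measured using DiFMUP as substrate; in other assays of this panel Not Active means under 50% inhibition at 10 µM.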
T1 sequence (P08575 whole entry): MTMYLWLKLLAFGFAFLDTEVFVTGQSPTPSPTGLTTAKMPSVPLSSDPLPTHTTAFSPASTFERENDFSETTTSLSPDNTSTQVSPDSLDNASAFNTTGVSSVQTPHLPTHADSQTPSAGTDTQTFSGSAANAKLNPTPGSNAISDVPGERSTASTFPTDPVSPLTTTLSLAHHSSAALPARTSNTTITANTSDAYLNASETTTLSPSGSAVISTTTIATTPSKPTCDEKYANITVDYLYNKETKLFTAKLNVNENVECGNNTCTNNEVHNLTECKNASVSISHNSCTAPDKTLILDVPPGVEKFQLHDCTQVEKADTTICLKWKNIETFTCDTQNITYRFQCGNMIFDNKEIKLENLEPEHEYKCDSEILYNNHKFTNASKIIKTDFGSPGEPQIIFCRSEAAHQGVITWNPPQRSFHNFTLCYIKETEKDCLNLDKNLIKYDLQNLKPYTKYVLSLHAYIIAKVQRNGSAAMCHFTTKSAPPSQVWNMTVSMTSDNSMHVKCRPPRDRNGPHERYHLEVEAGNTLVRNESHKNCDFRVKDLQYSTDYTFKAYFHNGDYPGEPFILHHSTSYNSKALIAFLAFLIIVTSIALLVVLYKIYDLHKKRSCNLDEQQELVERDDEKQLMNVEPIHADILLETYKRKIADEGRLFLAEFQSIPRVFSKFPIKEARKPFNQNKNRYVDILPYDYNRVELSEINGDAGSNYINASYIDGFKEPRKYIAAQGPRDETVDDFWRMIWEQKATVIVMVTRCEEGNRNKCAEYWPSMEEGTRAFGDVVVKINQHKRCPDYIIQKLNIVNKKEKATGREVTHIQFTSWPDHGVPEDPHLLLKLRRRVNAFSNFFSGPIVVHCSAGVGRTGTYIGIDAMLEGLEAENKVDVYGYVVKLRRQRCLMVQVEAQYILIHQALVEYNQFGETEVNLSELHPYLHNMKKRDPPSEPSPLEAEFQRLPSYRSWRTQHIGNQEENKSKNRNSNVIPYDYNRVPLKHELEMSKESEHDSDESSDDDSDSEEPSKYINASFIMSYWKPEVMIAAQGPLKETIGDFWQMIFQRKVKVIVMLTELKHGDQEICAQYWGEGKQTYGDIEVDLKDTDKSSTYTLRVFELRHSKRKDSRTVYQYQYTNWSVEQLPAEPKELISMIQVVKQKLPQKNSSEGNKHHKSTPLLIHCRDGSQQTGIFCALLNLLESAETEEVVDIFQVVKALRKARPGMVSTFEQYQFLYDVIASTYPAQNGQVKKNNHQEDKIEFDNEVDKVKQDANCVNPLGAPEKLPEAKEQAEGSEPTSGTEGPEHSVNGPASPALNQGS
Also noted: species or system Escherichia coli.

Test [2] addresses C-C chemokine receptor type 2 (Homo sapiens, UniProt P41597). The test is classed as cell membranes, Membrane. To be noted: cho-k1.
The target of test [3] is Beta-3 adrenergic receptor (Homo sapiens, UniProt P13945). The test is described as follows: DRUGMATRIX: Adrenergic beta3 radioligand binding (ligand: [125I] Cyanopindolol). The test is classed as cell membranes, HEK293, Membrane. To be noted: Not Active = under 50% inhibition at 10 µM; for Ki: read-out: Ki.
Chain of Beta-3 adrenergic receptor (P13945 whole entry): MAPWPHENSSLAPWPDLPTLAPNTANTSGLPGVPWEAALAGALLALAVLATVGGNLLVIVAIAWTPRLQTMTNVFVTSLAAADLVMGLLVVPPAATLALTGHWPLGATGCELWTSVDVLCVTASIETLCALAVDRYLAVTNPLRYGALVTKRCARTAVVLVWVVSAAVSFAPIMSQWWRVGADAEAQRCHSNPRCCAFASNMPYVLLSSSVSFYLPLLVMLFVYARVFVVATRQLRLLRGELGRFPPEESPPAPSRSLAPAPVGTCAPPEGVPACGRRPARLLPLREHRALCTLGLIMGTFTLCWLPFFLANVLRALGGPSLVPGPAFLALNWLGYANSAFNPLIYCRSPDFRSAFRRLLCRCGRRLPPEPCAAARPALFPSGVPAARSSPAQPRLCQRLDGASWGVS
In test [4] the target is T2, Alpha-1D adrenergic receptor (Homo sapiens, UniProt P25100). Further: in other assays of this panel Not Active means under 50% inhibition at 10 µM.
T2 sequence (P25100 whole entry): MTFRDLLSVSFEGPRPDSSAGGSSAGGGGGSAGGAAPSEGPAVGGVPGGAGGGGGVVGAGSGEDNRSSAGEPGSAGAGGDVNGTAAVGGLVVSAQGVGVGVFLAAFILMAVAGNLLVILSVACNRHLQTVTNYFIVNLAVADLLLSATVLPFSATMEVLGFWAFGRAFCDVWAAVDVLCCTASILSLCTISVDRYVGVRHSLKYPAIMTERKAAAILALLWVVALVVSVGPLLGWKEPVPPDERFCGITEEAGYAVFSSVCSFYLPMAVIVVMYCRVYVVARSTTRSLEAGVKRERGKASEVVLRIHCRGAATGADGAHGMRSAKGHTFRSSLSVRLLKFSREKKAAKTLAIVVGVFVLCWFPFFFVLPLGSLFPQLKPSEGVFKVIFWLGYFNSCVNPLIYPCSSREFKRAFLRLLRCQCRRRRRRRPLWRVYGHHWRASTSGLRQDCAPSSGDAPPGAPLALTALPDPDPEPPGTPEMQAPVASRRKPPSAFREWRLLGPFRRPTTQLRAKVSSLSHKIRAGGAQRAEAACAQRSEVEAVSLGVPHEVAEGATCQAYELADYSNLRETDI
Format: cell membranes, HEK293, Membrane. To be noted: for Ki: read-out: Ki.

Test [5] is described as follows: DRUGMATRIX: Sigma2 radioligand binding (ligand: [3H] Ifenprodil). Format: cell membranes, Rattus norvegicus, Wistar, Brain, Membrane. To be noted: Not Active = under 50% inhibition at 10 µM.
Test [6] concerns the target T3, C-C chemokine receptor type 4 (Homo sapiens, UniProt P51679). Further: in other assays of this panel Not Active means under 50% inhibition at 10 µM.
T3 sequence (P51679 whole entry): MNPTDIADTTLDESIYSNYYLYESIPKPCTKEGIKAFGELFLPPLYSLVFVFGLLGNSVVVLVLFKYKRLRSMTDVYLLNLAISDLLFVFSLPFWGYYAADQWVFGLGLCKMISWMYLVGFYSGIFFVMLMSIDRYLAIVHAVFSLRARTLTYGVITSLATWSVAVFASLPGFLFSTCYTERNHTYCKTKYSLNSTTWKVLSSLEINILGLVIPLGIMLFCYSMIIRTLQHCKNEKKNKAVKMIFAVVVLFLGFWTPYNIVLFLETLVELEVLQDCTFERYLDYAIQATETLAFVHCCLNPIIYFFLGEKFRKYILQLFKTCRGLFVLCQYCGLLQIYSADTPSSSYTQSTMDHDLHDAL
Format: cell membranes, Membrane. To be noted: chem-1.

Chain of C-C chemokine receptor type 2 (P41597 whole entry): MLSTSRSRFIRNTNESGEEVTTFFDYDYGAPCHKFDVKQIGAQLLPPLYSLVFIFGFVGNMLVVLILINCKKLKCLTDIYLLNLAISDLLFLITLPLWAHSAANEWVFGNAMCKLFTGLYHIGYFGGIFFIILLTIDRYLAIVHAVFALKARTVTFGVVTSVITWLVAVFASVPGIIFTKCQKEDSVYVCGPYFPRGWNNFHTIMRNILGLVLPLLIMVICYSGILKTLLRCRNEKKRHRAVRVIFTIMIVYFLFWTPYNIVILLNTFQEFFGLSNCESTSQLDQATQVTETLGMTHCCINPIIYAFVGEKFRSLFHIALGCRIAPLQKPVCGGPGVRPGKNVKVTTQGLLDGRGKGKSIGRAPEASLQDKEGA

As for `Cc1c(C)c2c(c(C)c1O)CCC(C)(CN1CCN(c3cc(N4CCCC4)nc(N4CCCC4)n3)CC1)O2` (stereo not drawn), the IC50 result in test [1] is “Not Active”; in test [2], “Not Active”; in test [3] (hek293) it was “Not Active”; in test [4] (read-out: IC50), 26.7 µM; in test [5], “Not Active”; in test [6], “Not Active”. Besides, the inhibition constant Ki in test [4] was 13.1 µM; in test [5] it was “Not Active”.

Turning to `COc1ccc(CCN(C)CCCC(C#N)(c2ccc(OC)c(OC)c2)C(C)C)cc1OC` (stereo not drawn), the IC50 entry in test [1] was “Not Active”; in test [2], “Not Active”; in test [3] (hek293), “Not Active”; in test [4] (hek293), “Not Active”; in test [5] (read-out: IC50), 2.82 µM; in test [6] it was “Not Active”. In addition, the inhibition constant Ki in test [5] (read-out: Ki) came to 1.74 µM.

`CC(C)Cc1ccc([C@@H](C)C(=O)O)cc1` [(R)-IBUPROPHEN]: the half-inhibitory concentration (IC50) entry in test [1], in test [2], in test [3] (hek293), in test [4] (hek293), in test [5] and in test [6] was “Not Active” in each case. Besides, the Ki entry in test [5] was “Not Active”.

Consider `CN(C)CCOC(c1ccccc1)c1ccccc1` [DIPHENHYDRAMINE], for which the IC50 entry in test [1], in test [2], in test [3] (hek293), in test [4] (hek293) and in test [6] was “Not Active” in each case.

As to `Clc1ccc(COC(Cn2ccnc2)c2ccc(Cl)cc2Cl)cc1` (stereo not drawn) [ECONAZOLE], the IC50 result is “Not Active” in test [1]; “Not Active” in test [2]; 6.15 µM in test [3] (read-out: IC50); 8.9 µM in test [4] (read-out: IC50); “Not Active” in test [6]. For the same molecule, the Ki in test [3] was 4.61 µM; in test [4] it was 4.37 µM.

In the case of `CCN(CC)CCOc1ccc(/C(=C(/Cl)c2ccccc2)c2ccccc2)cc1` [ENCLOMIPHENE], the IC50 result in test [1] is “Not Active”; in test [2], “Not Active”; in test [3] (read-out: IC50), 5.67 µM; in test [4] (hek293), “Not Active”; in test [6], “Not Active”. Moreover, the Ki in test [3] was 4.25 µM.

For `Fc1ccc(C(c2ccc(F)cc2)N2CCN(C/C=C/c3ccccc3)CC2)cc1` [FLUNARIZINE], the IC50 entry in test [1] is “Not Active”; in test [2], “Not Active”; in test [3] (hek293), “Not Active”; in test [4] (read-out: IC50), 1.08 µM; in test [6], “Not Active”. Besides, the Ki in test [4] is 0.533 µM.

Regarding `CNCCC(Oc1ccc(C(F)(F)F)cc1)c1ccccc1` (stereo not drawn) [FLUOXETINE], the IC50 entry in test [1], in test [2], in test [3] (hek293), in test [4] (hek293) and in test [6] was “Not Active” in each case.

On to `Cc1ccc(NC(=O)c2ccc(CN3CCN(C)CC3)cc2)cc1Nc1nccc(-c2cccnc2)n1` [IMATINIB], for which the IC50 entry in test [1], in test [2], in test [3] (hek293), in test [4] (hek293) and in test [6] was “Not Active” in each case.

`CC(C)Oc1ccc2c(=O)c(-c3ccccc3)coc2c1` [IPRIFLAVONE]: the IC50 entry in test [1], in test [2], in test [3] (hek293), in test [4] (hek293), in test [5] and in test [6] was “Not Active” throughout. The Ki entry in test [5] is “Not Active”.

For the molecule `CC(C)NCC(O)c1ccc(O)c(O)c1` (stereo not drawn) [ISOPROTERENOL], the IC50 result in test [1], in test [2], in test [3] (hek293), in test [4] (hek293), in test [5] and in test [6] was “Not Active” each time. In test [5], the Ki result is reported as “Not Active”.

Consider `CNC1(c2ccccc2Cl)CCCCC1=O` (stereo not drawn) [KETAMINE], for which the IC50 result in test [1], in test [2], in test [3] (hek293), in test [4] (hek293), in test [5] and in test [6] was “Not Active” each time. Also, the Ki result in test [5] was “Not Active”.

Consider `N#Cc1ccc(C(c2ccc(C#N)cc2)n2cncn2)cc1` [LETROZOLE], for which the IC50 result in test [1], in test [2], in test [3] (hek293), in test [4] (hek293), in test [5] and in test [6] was “Not Active” each time. For the same molecule, the Ki result in test [5] was “Not Active”.

Take `CCN1CCC[C@H]1CNC(=O)c1cc(S(N)(=O)=O)ccc1OC` [LEVOSULPIRIDE]: the IC50 entry in test [1], in test [2], in test [3] (hek293), in test [4] (hek293), in test [5] and in test [6] was “Not Active” each time. Further, the Ki entry in test [5] is “Not Active”.

For `CCN(CC)CC(=O)Nc1c(C)cccc1C` [LIDOCAINE], the IC50 result in test [1], in test [2], in test [3] (hek293), in test [4] (hek293), in test [5] and in test [6] was “Not Active” throughout. In addition, in test [5], the Ki result was “Not Active”.

`O=C1Nc2ccc(Cl)cc2C(c2ccccc2Cl)=NC1O` (stereo not drawn) [LORAZEPAM]: the IC50 result in test [1], in test [2], in test [3] (hek293), in test [4] (hek293), in test [5] and in test [6] was “Not Active” throughout. In addition, the Ki entry in test [5] is “Not Active”.

For `CO[C@@H]1[C@@H](OC)[C@H](C)[C@@](O)(CC(=O)O)O[C@H]1[C@H](C)[C@H]1O[C@@]2(CC[C@@](C)([C@H]3CC[C@@](C)([C@@H]4O[C@@H]([C@H]5O[C@](C)(O)[C@H](C)C[C@@H]5C)C[C@@H]4O[C@@H]4C[C@H](OC)[C@@H](OC)[C@H](C)O4)O3)O2)C[C@H](O)[C@H]1C` [MADURAMICIN ACID], the IC50 entry is “Not Active” in test [1]; “Not Active” in test [2]; “Not Active” in test [3] (hek293); 1.13 µM in test [4] (read-out: IC50); “Not Active” in test [5]; “Not Active” in test [6]. In addition, the Ki was 0.554 µM in test [4] and “Not Active” in test [5].

For the molecule `CN[C@H]1CC[C@@H](c2ccc(Cl)c(Cl)c2)c2ccccc21` [SERTRALINE], the IC50 entry in test [1], in test [2], in test [3] (hek293), in test [4] (hek293) and in test [6] was “Not Active” each time.

For orientation: IC50 means the point on the concentration scale where inhibition reaches its midpoint. As usually defined, the Ki is the dissociation constant of the complex between target and ligand, obtained from inhibition or displacement.

(Values after ChEMBL document CHEMBL1909046, “DrugMatrix in vitro pharmacology data”.)
